Reference: PubChem BioAssay AID2060483 (Molecular Pharmacology Branch, DTP, NCI, 2025)

Tested on: K24384-001-R-PDC complex spheroids, viability
Experiment: Anticancer human tumor K24384-001-R-PDC patient-derived pancreatic adenocarcinoma cell line growth inhibition [GQUAD]
Conditions: for IC50: curve of first compound; for viability, T/C: stronger effect = lower value
Procedure, shortened: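 Viability of tumor cells grown as complex spheroids with endothelial and stromal cells, exposed to drug combinations. Top concentration at or near clinical Cmax (else 10 microM), diluted in half-log increments.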

[1] = second compound 0.0316 µM, first compound 0.0316 µM
[2] = second compound 0.0316 µM, first compound 0.1 µM
[3] = second compound 0.0316 µM, first compound 0.316 µM
[4] = second compound 0.0316 µM, first compound 1 µM
[5] = second compound 0.0316 µM, first compound 3.16 µM
[6] = second compound 0.0316 µM, first compound 10 µM
[7] = second compound 0.1 µM, first compound 0.0316 µM
[8] = second compound 0.1 µM, first compound 0.1 µM
[9] = second compound 0.1 µM, first compound 0.316 µM
[10] = second compound 0.1 µM, first compound 1 µM
[11] = second compound 0.1 µM, first compound 3.16 µM
[12] = second compound 0.1 µM, first compound 10 µM
[13] = second compound 0.316 µM, first compound 0.0316 µM
[14] = second compound 0.316 µM, first compound 0.1 µM
[15] = second compound 0.316 µM, first compound 0.316 µM
[16] = second compound 0.316 µM, first compound 1 µM
[17] = second compound 0.316 µM, first compound 3.16 µM
[18] = second compound 0.316 µM, first compound 10 µM
[19] = second compound 1 µM, first compound 0.0316 µM
[20] = second compound 1 µM, first compound 0.1 µM
[21] = second compound 1 µM, first compound 0.316 µM
[22] = second compound 1 µM, first compound 1 µM
[23] = second compound 1 µM, first compound 3.16 µM
[24] = second compound 1 µM, first compound 10 µM
[25] = second compound 3.16 µM, first compound 0.0316 µM
[26] = second compound 3.16 µM, first compound 0.1 µM
[27] = second compound 3.16 µM, first compound 0.316 µM
[28] = second compound 3.16 µM, first compound 1 µM
[29] = second compound 3.16 µM, first compound 3.16 µM
[30] = second compound 3.16 µM, first compound 10 µM
[31] = second compound 10 µM, first compound 0.0316 µM
[32] = second compound 10 µM, first compound 0.1 µM
[33] = second compound 10 µM, first compound 0.316 µM
[34] = second compound 10 µM, first compound 1 µM
[35] = second compound 10 µM, first compound 3.16 µM
[36] = second compound 10 µM, first compound 10 µM
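Also: spheroids exposed to compounds for seven days.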

`Nc1ccn(C2OC(CO)C(O)C2(F)F)c(=O)n1` (centres undefined) + Cc1[nH]c2ccc(F)cc2c1-c1nc2c3cccnc3c3ncccc3c2[nH]1 showed an IC50 (second compound 0.0316 µM) of 215 nM, an IC50 (second compound 0.1 µM) of 208 nM and an IC50 (second compound 0.316 µM) of 318 nM. For the same molecule, the IC50 (second compound 1 µM) was 290 nM, the IC50 (second compound 3.16 µM) was 240 nM and the IC50 (second compound 10 µM) was 110 nM. The viability, T/C [1] was 87.6%, the viability, T/C [2] was 62.5% and the viability, T/C [3] was 44.5%. For the same molecule, the viability, T/C [4] was 30.6%, the viability, T/C [5] was 26.2% and the viability, T/C [6] was 23.2%. It also gave a viability, T/C [7] of 75.7%, a viability, T/C [8] of 66.4% and a viability, T/C [9] of 36.7%. It also gave a viability, T/C [10] of 35.8%, a viability, T/C [11] of 26.4% and a viability, T/C [12] of 19.8%. For the same molecule, the viability, T/C [13] was 71.1%, the viability, T/C [14] was 69.5% and the viability, T/C [15] was 46.9%. The viability, T/C [16] was 34.8%, the viability, T/C [17] was 27.9% and the viability, T/C [18] was 20.6%. It also gave a viability, T/C [19] of 81.3%, a viability, T/C [20] of 70% and a viability, T/C [21] of 42.5%. The viability, T/C [22] was 38.8%, the viability, T/C [23] was 33.3% and the viability, T/C [24] was 22.1%. The viability, T/C [25] was 69.4%, the viability, T/C [26] was 60.9% and the viability, T/C [27] was 41.3%. It also gave a viability, T/C [28] of 43.2%, a viability, T/C [29] of 25.3% and a viability, T/C [30] of 19.7%. It also gave a viability, T/C [31] of 54.9%, a viability, T/C [32] of 52.6% and a viability, T/C [33] of 39.6%. For the same molecule, the viability, T/C [34] was 30.7%, the viability, T/C [35] was 19.8% and the viability, T/C [36] was 15.1%.
With `Cc1cccc(N(C)C(=O)C2C(O)CCN2c2nc(C)cc(C(F)(F)F)c2C#N)c1` (centres undefined) + Cc1[nH]c2ccc(F)cc2c1-c1nc2c3cccnc3c3ncccc3c2[nH]1 the IC50 (second compound 0.0316 µM) was > 10000 nM, the IC50 (second compound 0.1 µM) was > 10000 nM and the IC50 (second compound 0.316 µM) was > 10000 nM. The IC50 (second compound 1 µM) was > 10000 nM, the IC50 (second compound 3.16 µM) was > 10000 nM and the IC50 (second compound 10 µM) was > 10000 nM. It also gave a viability, T/C [1] of 98.2%, a viability, T/C [2] of 90.9% and a viability, T/C [3] of 105%. For the same molecule, the viability, T/C [4] was 95.2%, the viability, T/C [5] was 116% and the viability, T/C [6] was 117%. For the same molecule, the viability, T/C [7] was 95.3%, the viability, T/C [8] was 102% and the viability, T/C [9] was 103%. It also gave a viability, T/C [10] of 100%, a viability, T/C [11] of 131% and a viability, T/C [12] of 118%. For the same molecule, the viability, T/C [13] was 81.5%, the viability, T/C [14] was 103% and the viability, T/C [15] was 107%. For the same molecule, the viability, T/C [16] was 104%, the viability, T/C [17] was 105% and the viability, T/C [18] was 128%. It also gave a viability, T/C [19] of 85.4%, a viability, T/C [20] of 91.2% and a viability, T/C [21] of 87.9%. For the same molecule, the viability, T/C [22] was 99%, the viability, T/C [23] was 114% and the viability, T/C [24] was 93.4%. The viability, T/C [25] was 83.1%, the viability, T/C [26] was 75% and the viability, T/C [27] was 77.4%. The viability, T/C [28] was 85%, the viability, T/C [29] was 83.7% and the viability, T/C [30] was 71.8%. For the same molecule, the viability, T/C [31] was 74.4%, the viability, T/C [32] was 85.5% and the viability, T/C [33] was 74.4%. The viability, T/C [34] was 85.6%, the viability, T/C [35] was 67.9% and the viability, T/C [36] was 75.5%.
